Assay results published in publication PMC5889558, “The inhibition of human lung fibroblast proliferation and differentiation by Gs-coupled receptors is not predicted by the magnitude of cAMP response” (Respiratory Research, 2018).

Legend:
Assay type in all cases: cell-based
[1] = test system: human lung fibroblasts (HLF); assay: HLF proliferation by BrdU incorporation (DELFIA), driven by FBS or PDGF; details: 24 h; for inhibition of FBS- and PDGF-driven proliferation (in words): either stimulus; for Emax / EC50: Homo sapiens, Fibroblast
Description: Proliferation of HLF was measured by incorporation of bromodeoxyuridine (BrdU). HLF were seeded overnight at 4000 cells/well in 96-well black ViewPlates, before being starved for 24 h in culture medium devoid of FBS. Proliferation was measured after incubation with a range of concentrations of FBS or PDGF, in DMEM supplemented with 0.1% w/v HSA, for 24 h.
For anti-remodelling assays using BrdU incorporation, cells were incubated for 24 h with a range of concentrations of test compounds in the presence of near maximal concentrations of FBS or PDGF in DMEM supplemented with 0.1% w/v HSA. Proliferation was assessed using the DELFIA BrdU incorporation assay kit following manufacturer protocol. Fluorescence was measured using a Packard EnVision plate reader. To account for the inter-assay variation in levels of proliferation in each experiment, data were normalized to the PDGF or FBS response.

[2] = test system: human lung fibroblasts (HLF); assay: Fibroblast to myofibroblast transdifferentiation (FMT), αSMA immunofluorescence, TGFβ-driven; details: 48 h, TGFβ 0.3 ng/mL
Description: To assess the differentiation of fibroblasts to the myofibroblast phenotype, immunofluorescence was used to monitor increases in α smooth muscle actin (αSMA). HLF were seeded overnight at 1000 cells/well in 384-well black clear bottom plates, before being starved for 24 h growth medium devoid of FBS.
For anti-remodelling assays using FMT, cells were incubated for 48 h with a range of concentrations of test compounds and incubated for 48 h, at 37°C, 5% CO2 in the presence of a near maximal concentration of TGFβ (0.3 ng/mL), to promote differentiation in DMEM supplemented with 0.1% w/v HSA. Following stimulation, cells were fixed in 4% paraformaldehyde, washed 3× in PBS (with Ca^2+/Mg^2+), and incubated with permeabilising blocking buffer (dPBS (with Ca^2+/Mg^2+), 10% FBS (v/v), 0.1% Triton X-100 (v/v)) for 1 h at 37°C. Wells were then washed 3× in wash buffer (Tris Buffered Saline (TBS), 0.05% (v/v) Tween-20) and incubated with mouse anti-α SMA (1:1000 dilution in permeabilising blocking buffer) for 1 h at room temperature, with gentle shaking. Following 3× wash in wash buffer, wells were incubated with blocking buffer containing Hoechst to stain for nuclear DNA (2 μM), and FITC-conjugated Affini-pure goat […] IgG (1:1000 dilution in blocking buffer) for 30 min at 37°C. Fluorescence was then quantified on a widefield ImageXpress Micro microscope, with a Plan Fluor 20X objective, DAPI filter cube (excitation 400–418 nm, emission 435–470 nm), 50 ms exposure time for nuclei, and FITC filter cube (excitation 467–498 nm, emission 513–556 nm), 200 ms exposure time for αSMA.
To quantify increases in αSMA fluorescence, a standard Multi-Wavelength Cell Scoring algorithm was used in MetaXpress 5.3 software (Molecular Devices, California, USA). To account for the inter-assay variation in levels of αSMA expression produced in each experiment, data were normalized to the response to TGFβ.

[3] = test system: human lung fibroblasts (HLF); assay: cAMP accumulation in HLF (HitHunter or AlphaScreen); details: HLF; for cAMP response (in words): acute cAMP accumulation; for EC50 / Emax: Homo sapiens, Fibroblast; for EC50: read-out: cAMP pEC50 (converted); for Emax: read-out: cAMP Emax (% max)
Description: HLF were grown to confluency in 96-well white ViewPlates, before incubation with a range of agonist concentrations, or vehicle, for 2 h at room temperature in HBSS with 5 mM HEPES, 0.1% w/v HSA, and 5 μM rolipram. […] Rolipram was excluded when measuring cAMP levels in response to PDE inhibitors. cAMP levels were measured using either HitHunter cAMP assay or AlphaScreen competition assay following manufacturer protocol, and were assessed on either a BMG LABTEK ClarioStar or a Packard EnVision plate reader. cAMP concentrations in each well were determined using a standard curve. To account for the inter-assay variation in levels of cAMP produced in each experiment, data were normalized to the maximal forskolin response.

[4] = test system: human lung fibroblasts (HLF); assay: Cell viability assay, caspase-3/7 as marker of apoptosis; details: 24 h
Description: Cell viability was measured using caspase-3/7 expression as a marker of apoptosis after treatment for 24 h with test compounds. HLF were seeded overnight at 6,000 cells/well in 96-well black ViewPlates, before being starved for 24 hours in culture medium devoid of FBS. Cells were incubated for 24 hours in the presence of test compounds at the top concentrations used in the proliferation assays, or in the presence of 100 nM staurosporine to induce apoptosis.
The presence of the apoptotic marker caspase-3/7 was detected by incubating cells with 8 μM CellEvent™ Caspase-3/7 Red Detection Reagent in dPBS with 5 % FBS, for 30 minutes at 37°C. […] Images were analyzed using a multi wavelength cell scoring algorithm within the MetaXpress 5.3 software, which measures cell number using stained nuclei, and percent of these cells positive for caspase-3/7 from Cy5 readouts. To account for the inter-assay variation in levels of caspase 3/7 detected in each experiment, data were normalized to the staurosporine response.
Statistical significance across treatment groups was determined by using the one-way ANOVA with Dunnett’s multiple-comparison post hoc test.

[5] = 2 h, room temperature, 5 μM rolipram (excluded for PDE inhibitors), mean ± SEM, at least 3 experiments, NC = not calculated due to incomplete curve
[6] = 2 h, percentage of the maximal forskolin response, mean ± SEM, NC = not calculated due to incomplete curve
[7] = inhibition of BrdU incorporation, EC80 PDGF, percentage of maximal proliferation observed with PDGF, NC = not calculated due to incomplete curve, read-out: Proliferation vs PDGF Emax (% max)
[8] = inhibition of BrdU incorporation, EC80 concentration of PDGF, mean ± SEM, NC = not calculated due to incomplete curve, read-out: Proliferation vs PDGF pEC50 (converted)
[9] = inhibition of BrdU incorporation, EC80 concentration of serum, mean ± SEM, NC = not calculated due to incomplete curve, read-out: Proliferation vs serum pEC50 (converted)
[10] = inhibition of BrdU incorporation, EC80 serum, percentage of maximal proliferation observed with serum, NC = not calculated due to incomplete curve, read-out: Proliferation vs serum Emax (% max)

Molecule	inhibition of TGFβ-driven FMT (in words) [2]	EC50 [3, 5] [nM]	Emax [3, 6] [%]	Emax [1, 7] [%]	EC50 [1, 8] [nM]	EC50 [1, 9] [nM]	Emax [1, 10] [%]	further results
CCNC(=O)[C@H]1O[C@@H](n2cnc3c(N)ncnc32)[C@H](O)[C@@H]1O [NECA]	full concentration-response curves could not be established	–	–	–	–	–	–	maximal level of inhibition of PDGF-driven proliferation ([1]; BrdU, near maximal PDGF): 38%; Proliferation vs PDGF Emax (% max) ([1]; inhibition of BrdU incorporation, EC80 PDGF, percentage of maximal proliferation observed with PDGF, NC = not calculated due to incomplete curve): 37.8 ± 14.7 % max; Proliferation vs PDGF pEC50 ([1]; inhibition of BrdU incorporation, EC80 concentration of PDGF, mean ± SEM, NC = not calculated due to incomplete curve): 6.94 ± 0.43; cAMP pEC50 [3, 5]: 5.39 ± 0.13; cAMP Emax (% max) [3, 6]: 47.3 ± 3.40 % max; % cells positive for caspase-3/7, 1:10 dilution ([4]; HLF, 1:10 dilution of top conc 30 μM): 0.67 ± 0.09%; % cells positive for caspase-3/7, Top conc ([4]; HLF, top conc 30 μM): 1.04 ± 0.20%
COc1ccc(C2CNC(=O)C2)cc1OC1CCCC1 (stereo not drawn) [Rolipram]	full concentration-response curves could not be established	–	–	–	–	–	–	inhibition of FBS- and PDGF-driven proliferation (in words) ([1]; BrdU): incapable of inhibiting the proliferation mediated by either stimulus; cAMP response (in words) [3]: no detectable cAMP accumulation
CC#CCC(C)[C@H](O)/C=C/[C@@H]1[C@H]2c3cccc(CCCC(=O)O)c3O[C@H]2C[C@H]1O (mixture of isomers) [Beraprost]	–	105	107 ± 8.99	–	–	–	–	–
CC(C)(C)NCC(O)c1ccc(O)c(CO)c1 (stereo not drawn) [Salbutamol]	–	43.7	68.9 ± 1.4	69.2 ± 5.53	10.5	91.2	32.4 ± 5.84	% cells positive for caspase-3/7, 1:10 dilution ([4]; human, 1 μM): 0.53 ± 0.12%; % cells positive for caspase-3/7, Top conc ([4]; human, 10 μM): 0.46 ± 0.09%
CCCCC[C@H](O)/C=C/[C@H]1[C@H](O)CC(=O)[C@@H]1C/C=C\CCCC(=O)O [PGE2, prostaglandin E2]	–	45.7	85.5 ± 8.64	71 ± 3.86	2.51	91.2	43.1 ± 6.14	% cells positive for caspase-3/7, 1:10 dilution ([4]; HLF, 1:10 dilution of top conc 10 μM): 0.53 ± 0.04%; % cells positive for caspase-3/7, Top conc ([4]; HLF, top conc 10 μM, mean ± SEM, n=3): 0.68 ± 0.29%
CCc1cc2c(cc1CC)CC(NC[C@H](O)c1ccc(O)c3[nH]c(=O)ccc13)C2 [Indacaterol]	–	2.63	83.3 ± 4.47	90.3 ± 5.25	1.45	11	47.9 ± 1.58	maximal cAMP response ([3]; % of the forskolin response): 80%; % cells positive for caspase-3/7, 1:10 dilution ([4]; HLF, 1:10 dilution of top conc 1 μM): 0.62 ± 0.15%; % cells positive for caspase-3/7, Top conc ([4]; HLF, top conc 1 μM): 0.62 ± 0.01%
Alpha melanocortin stimulating hormone (Ac-SYSMEHFRWGKPV-NH2; ends and bridges not checked; UniProt P01189 138-150, looked up) [α-MSH, MC1, MC3, MC4, MC5 agonist]	full concentration-response curves could not be established	–	–	–	–	–	–	inhibition of FBS- and PDGF-driven proliferation (in words) ([1]; BrdU): incapable of inhibiting the proliferation mediated by either stimulus; cAMP response (in words) [3]: no detectable cAMP response
CC#CCC(C)[C@H](O)/C=C/[C@@H]1[C@H]2C/C(=C/CCCC(=O)O)C[C@H]2C[C@H]1O (stereo partly drawn) [Iloprost]	–	77.6	99.5 ± 7.22	–	–	–	–	% cells positive for caspase-3/7, 1:10 dilution ([4]; human, 0.3 μM): 1.15 ± 0.29%; % cells positive for caspase-3/7, Top conc ([4]; human, 3 μM): 0.88 ± 0.08%
